What is called IC50 is the concentration that gives 50% inhibition.

For series [1], the system named is Influenza virus. The series is classed as cell-based, influenza A virus NL09 strain. The settings on record: for first experiment PFU/ml: 0.1% DMSO control 100000; for Antiviral activity against Influenza virus / Flu titer (pfu/ml): A549 cells; for Antiviral activity against Influenza virus: screening at 50 μM, 10 μM (and 1 μM); for IC50: read-out: IC50 against IAV; for Flu titer (pfu/ml): plaque assay.

The test system of series [2] is SARS-CoV-2 mRNA. The series is classed as cell-based. The conditions noted are these: two gene targets (N, RdRp).
In series [3] the test system is IAV NS1 mRNA. The format is cell-based, influenza A virus.
Series [4] deals with IAV. Put plainly: Time of addition assay, IAV in A549 cells, plaque assay. The format is cell-based, influenza A virus.
The test system of series [5] is SARS-CoV-2. The format is cell-based.
Series [6] has as its system MERS-CoV. The series is classed as cell-based, MERS-CoV (Jordan strain). The settings on record: Huh7 cells, MOI 0.1, 24 h; read-out: IC50 against MERS-CoV.
Series [7] deals with IAV NS1. The format is cell-based, influenza A virus.
Series [8] concerns SARS-CoV. The series is classed as cell-based. The settings on record: 24 h.
Series [9] deals with IAV RNA. As to the kind of experiment: Multi-segment RT-PCR (M-RTPCR) of all IAV segments. The series is classed as cell-based, influenza A virus.
Series [10] concerns Ebola virus Makona strain (EBOV). The series is classed as cell-based. The conditions noted are these: Huh7 cells, 48 h; read-out: IC50 against EBOV.
In series [11] the test system is Huh7 cells. The settings on record: 24 h, CellTiter-Glo. In general terms: Cellular ATP, detected with luciferase, serves as a proxy for viable cell number.
The subject of series [12] is Marburg virus Angola strain (MARV). The format is cell-based. The settings on record: Huh7 cells, 48 h; read-out: IC50 against MARV.
Series [13] concerns A549 cells. The settings on record: 24 h, CellTiter-Glo.
Where [14] appears, read: 10 μM compound, DMSO (0.1%) control 153000.
Setting [15] is: 50 μM compound, DMSO (0.5%) control 58700.
Where [16] appears, read: 1 μm compound, DMSO (0.1%) control 153000.

“Also recorded” adds a separate entry of the source. Like-named read-outs stand apart in the source and are kept apart here.

On to `COc1ccc(CNC2CCCC2)c(OCC(O)CN2CCN(C)CC2)c1` (centres unmarked) [18-1], for which, in [1] (10 μM screen), the “first experiment PFU/ml” value is 60000 PFU/ml.

Consider `COc1ccc(CNCCc2ccccc2C)c(OCC(O)CN2CCN(C)CC2)c1` (centres unmarked) [18-2], for which the “first experiment PFU/ml” value in [1] (10 μM screen) is 500 PFU/ml. Besides, the “Antiviral activity against Influenza virus” value in [1] (listed as 27092311) was “increased activity”.

On to `COc1ccc(CNC2Cc3ccccc3C2)c(OCC(O)CN2CCN(C)CC2)c1` (centres unmarked) [18-3], for which, in series [1] (10 μM screen), the “first experiment PFU/ml” value is recorded as 12000 PFU/ml.

`COc1ccc(CNCCc2ccccc2Cl)c(OCC(O)CN2CCN(C)CC2)c1` (centres unmarked) [18-4]: the “first experiment PFU/ml” value in series [1] (10 μM screen) is 7000 PFU/ml.

With `COc1ccc(CNCC2CCCCC2)c(OCC(O)CN2CCN(C)CC2)c1` (centres unmarked) [18-5], the “first experiment PFU/ml” value in [1] (10 μM screen) was determined as 60000 PFU/ml.

On to `COc1ccc(CNCCc2ccccc2)c(OCC(O)CN2CCN(C)CC2)c1` (centres unmarked) [18-6], for which, in series [1] (10 μM screen), the “first experiment PFU/ml” value is recorded as 10000 PFU/ml.

On to `COc1ccc(CNCCCn2ccnc2C)c(OCC(O)CN2CCN(C)CC2)c1` (centres unmarked) [18-7], for which, in [1] (10 μM screen), the “first experiment PFU/ml” value is reported as 240000 PFU/ml.

Regarding `COc1ccc(CNC2CCCCCCC2)c(OCC(O)CN2CCN(C)CC2)c1` (centres unmarked) [18-8], the “first experiment PFU/ml” value in series [1] (10 μM screen) was determined as 3000 PFU/ml.

For the compound `COc1ccc(CNCCc2cccnc2)c(OCC(O)CN2CCCCCCC2)c1` (centres unmarked) [18-9], the “first experiment PFU/ml” value in series [1] (10 μM screen) is 200000 PFU/ml.

`COc1ccc(CNC2CCCCC2)c(OCC(O)CN2CCN(C)CC2)c1` (centres unmarked) [18-10]: the “first experiment PFU/ml” value in series [1] (10 μM screen) is 40000 PFU/ml.

Take `COCCCNCc1ccc(OC)cc1OCC(O)CN1CCN(C)CC1` (centres unmarked) [18-11]: the “first experiment PFU/ml” value in series [1] (10 μM screen) came out at 100000 PFU/ml.

As to `COc1ccc(CNCC(F)(F)F)c(OCC(O)CN2CCN(C)CC2)c1` (centres unmarked) [18-12], the “first experiment PFU/ml” value in series [1] (10 μM screen) is 30000 PFU/ml.

Consider `COc1ccc(CNCCCn2cccn2)c(OCC(O)CN2CCN(C)CC2)c1` (centres unmarked) [18-13], for which the “first experiment PFU/ml” value in series [1] (10 μM screen) is 40000 PFU/ml.

With `COc1ccc(CNCCCSC)c(OCC(O)CN2CCCCCCC2)c1` (centres unmarked) [18-14], the “first experiment PFU/ml” value in [1] (10 μM screen) is listed as 44000 PFU/ml.

Take `COc1ccc(CNCCCn2ccnc2)c(OCC(O)CN2CCN(C)CC2)c1` (centres unmarked) [18-15]: the “Influenza virus plaque assay titer, 10 μM” value in [1] (compound at 10 μM, DMSO control 100000) came to 36000 PFU/virus/ml.

Regarding `COc1ccc(CNCCCSC)c(OCC(O)CN2CCN(C)CC2)c1` (centres unmarked) [18-16], the “first experiment PFU/ml” value in series [1] (10 μM screen) is 210000 PFU/ml.

Turning to `COc1ccc(CNCCc2ccccc2F)c(OCC(O)CN2CCN(C)CC2)c1` (centres unmarked) [18-lead, 1-[2-({[2-(2-fluorophenyl)ethyl]amino}methyl)-5-methoxyphenoxy]-3-(4-methyl-1-piperazinyl)-2-propanol], in series [1] (10 μM screen), the “first experiment PFU/ml” value is given as 2000 PFU/ml. Also, the “1-24-20 (triplicate wells) PFU/ml” value in series [1] (10 μM screen, well 1, 0.1% DMSO control 23000) is recorded as 1300 PFU/ml; in series [1] (10 μM screen, well 2, 0.1% DMSO control 19000) it was 1000 PFU/ml; in series [1] (10 μM screen, well 3, 0.1% DMSO control 29000), 4000 PFU/ml; in series [1] (50 μM screen, well 1, 0.5% DMSO control 21000), 600 PFU/ml; in [1] (50 μM screen, well 2, 0.5% DMSO control 5300), 200 PFU/ml; in [1] (50 μM screen, well 3, 0.5% DMSO control 15000), 300 PFU/ml.

With `COc1ccc(CNCCc2ccccc2C)c(OCC(O)CN2CCN(C)CC2)c1` (centres unmarked) [UMB18-2], the “SARS-CoV-2 mRNA production” value in series [2] is recorded as “capable of inhibiting SARS-CoV-2 mRNA production”. The “NS1 mRNA” value in series [3] is on record as “marked reduction in mRNA”. Moreover, in [4], the “Inhibition of IAV, drug added 2 h after infection (+2 h)” value was “marked reduction in the level of inhibition”. The “Inhibition of SARS-CoV-2 virus production (TCID50)” value in series [5] is reported as “capable of inhibiting virus production; also recorded: less so”. In addition, the IC50 in series [6] and in series [1] was approximately 5 µM throughout. Moreover, in series [7], the NS1 protein result is “lack of NS1 protein”. Moreover, in [8] (10 μM), the “Inhibition of SARS-CoV virus production” value is “inhibition, but to a lesser extent”. For the same compound, the “Reduction in SARS-CoV virus production” value in [8] (50 μM) was 1 log. In addition, in [9], the “IAV RNA amplified by M-RTPCR” value is “total loss of IAV RNA”.

For `COc1ccc(CNCCc2ccccc2F)c(OCC(O)CN2CCN(C)CC2)c1` (centres unmarked) [UMB18], the IC50 in series [10] was approximately 5 µM; in [6] it was approximately 5 µM; in series [12], approximately 16 µM; in series [1], approximately 5 µM. Also, the “Cell cytotoxicity at antiviral concentrations” value in series [11] and in series [13] was “minimal toxicity” each time. Also, the “NS1 mRNA” value in [3] is “marked reduction in mRNA”. Also, in series [4], the “Inhibition of IAV, drug added 2 h after infection (+2 h)” value is listed as “marked reduction in the level of inhibition”. For the same compound, in series [7], the NS1 protein entry is “lack of NS1 protein”. The “Antiviral activity against Influenza virus” value in series [1] was “antiviral activity against influenza”.

Take `COc1ccc(OC)c(Cc2nnc(CCC(=O)NC3CC(C)(C)CC(C)(C)C3)o2)c1` [compound 35434810, 3-4[5-(2,5-dimethoxybenzyl)-1,3,4-oxadiazol-2-yl]-N-(3,3,5,5-tetramethylcyclohexyl)propanamide]: the figures for the “Flu titer (pfu/ml)” value in [1] (setting [14]), in series [1] (setting [15]) and in series [1] (setting [16]) were 80000 pfu/ml, 130000 pfu/ml and 80000 pfu/ml, respectively.

In the case of `OCCN(Cc1nc(Cc2cccc(C(F)(F)F)c2)no1)CC12CC3CC(CC(C3)C1)C2` [compound 61121342], the “Flu titer (pfu/ml)” value in series [1] (setting [14]) was determined as 130000 pfu/ml; in series [1] (setting [15]), 50000 pfu/ml; in [1] (setting [16]), 9000 pfu/ml.

For the origin of these results see patent US20220259180A1, “BROAD SPECTRUM ANTIVIRAL COMPOUNDS TARGETING THE SKI COMPLEX” (priority 2019, published 2022).
